For one compound, IC50 results are on record in ChEMBL document CHEMBL2311470, “Heterobivalent dual-target probe for targeting GRP and Y1 receptors on tumor cells” (Bioorg Med Chem Lett, 2013).

pIC50: −log10 of the molar value.

What all share (type): cell-based
Experiment [1] concerns the target T1, Neuropeptide Y receptor type 1 (Homo sapiens, UniProt P25929).
T1 sequence (P25929 whole entry): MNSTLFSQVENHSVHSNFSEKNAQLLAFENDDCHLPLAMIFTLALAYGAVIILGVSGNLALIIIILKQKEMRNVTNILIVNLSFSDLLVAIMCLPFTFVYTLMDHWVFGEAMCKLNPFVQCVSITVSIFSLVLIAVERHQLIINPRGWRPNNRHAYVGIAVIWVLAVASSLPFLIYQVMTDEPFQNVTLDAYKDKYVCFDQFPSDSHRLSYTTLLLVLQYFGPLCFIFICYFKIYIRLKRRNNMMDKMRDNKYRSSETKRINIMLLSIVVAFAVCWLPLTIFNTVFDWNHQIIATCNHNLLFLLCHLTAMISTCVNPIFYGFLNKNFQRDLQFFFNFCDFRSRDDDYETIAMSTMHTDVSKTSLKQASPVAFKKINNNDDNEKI
Kind of experiment: Binding affinity to Y1 receptor in human SK-N-MC cells.

Experiment [2] addresses T1, Neuropeptide Y receptor type 1. Kind of experiment: Displacement of [125I]-NPY from Y1 receptor in human MCF7 cells in presence of 1 uM BBN.
In experiment [3] the target is Gastrin-releasing peptide receptor (Homo sapiens, UniProt P30550). Kind of experiment: Displacement of [125I]-Tyr4-BBN from human GRPR overexpressed in human T47D cells. On the technique in general: Displacement assays read how much labelled ligand stays bound in the presence of the test substance.
Gastrin-releasing peptide receptor, sequence (P30550 whole entry): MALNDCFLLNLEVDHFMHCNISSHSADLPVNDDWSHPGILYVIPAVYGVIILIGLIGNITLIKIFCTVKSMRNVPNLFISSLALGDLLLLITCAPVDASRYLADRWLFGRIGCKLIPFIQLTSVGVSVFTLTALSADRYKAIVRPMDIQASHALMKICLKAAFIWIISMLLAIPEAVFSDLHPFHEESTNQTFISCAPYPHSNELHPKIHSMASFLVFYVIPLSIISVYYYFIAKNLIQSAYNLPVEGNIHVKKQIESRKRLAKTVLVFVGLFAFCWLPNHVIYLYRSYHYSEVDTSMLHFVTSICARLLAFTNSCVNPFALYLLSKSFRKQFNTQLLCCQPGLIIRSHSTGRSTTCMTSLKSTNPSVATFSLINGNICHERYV

On to `CC[C@H](C)[C@H](N)C(=O)N[C@@H](CC(N)=O)C(=O)N1CCC[C@H]1C(=O)N[C@@H](CCCCNC(=O)COCCOCCNC(=O)[C@H](CCCCNC(=O)COCC(=O)NCCOCCOCC(=O)NCC(=O)Nc1ccc(C(=O)N[C@@H](CCC(N)=O)C(=O)N[C@@H](Cc2c[nH]c3ccccc23)C(=O)N[C@@H](C)C(=O)N[C@H](C(=O)NCC(=O)N[C@@H](Cc2cnc[nH]2)C(=O)N[C@@H](CC(C)C)C(=O)N[C@@H](CCSC)C(N)=O)C(C)C)cc1)NC(=O)CN1CCN(CC(=O)O)CCN(CC(=O)O)CCN(CC(=O)O)CC1)C(=O)N[C@@H](Cc1ccc(O)cc1)C(=O)N[C@@H](CCCN=C(N)N)C(=O)N[C@@H](CC(C)C)C(=O)N[C@@H](CCCN=C(N)N)C(=O)N[C@@H](Cc1ccc(O)cc1)C(N)=O`, for which the pIC50 in experiment [1] is 7.13; in experiment [2], 7.10; in experiment [3], 7.74.

Usually pIC50 stands for the negative decadic logarithm of the IC50, by convention in mol/L.
